Results taken from patent publication US20250136583A1, “NOVEL SALT FORMS OF ISOCHROMAN-IMIDAZOLE STRUCTURED ALPHA-2A ADRENOCEPTOR AGONIST” (ORION CORPORATION, priority 2022, published 2025).
Structures can show the parent of a compound that is named as a salt.

Tests used:
[1] = Physical stability of the salts (storage at elevated temperature and relative humidity, re-analysis by XRPD); type: physicochemical; conditions: for Form after stability / Physical stability: solids exposed for 2 or 3 weeks at 40° C. and 70-80% relative humidity; for Form after stability: XRPD; for Physical stability: re-analyzed by XRPD
Protocol: XRPD measurements were performed with the X-ray powder diffractometer Bruker D8 Advance at room temperature, using a copper filled X-ray tube (40 kV×40 mA) as the X-ray source, CuKα (λ=1.5418 Å), a 0.6 mm divergence slit, 2.5° Soller slits on both the primary and secondary beams and the 1-dimensional LynxEye detector (with aperture angle of 2.91593°). Data collection was done in the range of 3.8-33° 2θ with 0.02° increments, at a scan speed of 0.3°/s.
A stability test was carried out for all crystalline salt forms resulted from the salt screen by exposing the solids for 2 or 3 weeks at 40° C. and 70-80% relative humidity. After exposure, the solids were re-analyzed by XRPD, followed by physical stability assessment.

[2] = Chemical stability of the salts (stress at 60° C. and 75% relative humidity, purity by UHPLC); type: physicochemical; conditions: for Purity (%) of 1 day stress samples / Difference between reference and 1 day stressed sample: 1 day at 60° C. and 75% relative humidity; for Purity (%) of 1 day stress samples / Purity (%) of 14 day stress samples / Purity (%) of reference: UHPLC; for Difference between reference and 1 day stressed sample / Difference between reference and 14 day stressed sample: purity difference, in %; for Purity (%) of 14 day stress samples / Difference between reference and 14 day stressed sample: 14 days at 60° C. and 75% relative humidity; for Chemical stability (in words): summary statement; for Purity (%) of reference: unstressed sample
Protocol: The purity analyses were performed using Agilent UHPLC equipment with PDA/DAD detector at 210 nm wavelength and reverse phase liquid chromatography column Acquity UPLC HSS T3, 100×3.0 mm, 1.8 μm (Waters). The chromatography was performed with gradient run using acetonitrile and phosphate buffer (pH 3.0) as eluents.
The chemical stability of various salts of compound (I) was determined by stressing the salts for 1 and 14 days at 60° C. and 75% relative humidity. The unstressed sample was used as an reference. The purity of the samples were analyzed using UHPLC, and the purity difference between the stressed and reference was calculated.

alpha2A receptor = target: T1, alpha2A receptor (Homo sapiens, UniProt P08913); conditions: background, WO 2013/150173; cited from earlier work
T1 sequence (P08913 1-465): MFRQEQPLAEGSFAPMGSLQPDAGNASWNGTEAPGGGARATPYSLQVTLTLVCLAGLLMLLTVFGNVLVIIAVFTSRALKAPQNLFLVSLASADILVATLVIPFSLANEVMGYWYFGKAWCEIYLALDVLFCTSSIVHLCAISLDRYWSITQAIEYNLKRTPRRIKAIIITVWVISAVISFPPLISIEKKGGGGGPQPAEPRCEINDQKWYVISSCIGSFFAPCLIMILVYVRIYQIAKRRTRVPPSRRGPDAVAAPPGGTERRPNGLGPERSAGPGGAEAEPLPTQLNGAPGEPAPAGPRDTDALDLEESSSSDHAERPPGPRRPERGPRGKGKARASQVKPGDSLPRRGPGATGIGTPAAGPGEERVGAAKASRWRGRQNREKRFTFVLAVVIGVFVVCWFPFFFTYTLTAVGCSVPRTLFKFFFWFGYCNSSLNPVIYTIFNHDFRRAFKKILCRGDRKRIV

[3] = listed as Napthalene-1,5-disulfonic acid salt

SMILES | Form after stability [1] | Physical stability [1] | Purity (%) of 1 day stress samples [2] [%] | Difference between reference and 1 day stressed sample [2] | Purity (%) of 14 day stress samples [2] [%] | Difference between reference and 14 day stressed sample [2] | Chemical stability (in words) [2] | Purity (%) of reference [2] [%] | also measured
COc1cccc2c1CCOC2C1=NCCN1 (centres unmarked) [Hydrobromic acid salt Form 1, 2-(5-methoxyisochroman-1-yl)-4,5-dihydro-1H-imidazole] | Form 1 | Stable | 98.1 | 0.2 | 98.2 | 0.1 | good chemical stability | 98.3 | Physical stability ([1]; listed as hydrobromic acid): remained stable
COc1cccc2c1CCOC2C1=NCCN1 (centres unmarked) [Hydrochloric acid salt Form 1, 2-(5-methoxyisochroman-1-yl)-4,5-dihydro-1H-imidazole] | Form 1 | Stable | 89.8 | 8.7 | 69.0 | 29.5 | – | 98.6 | Physical stability ([1]; listed as hydrochloric acid): remained stable
COc1cccc2c1CCOC2C1=NCCN1 [L-tartaric acid salt Form 1, 2-(5-methoxyisochroman-1-yl)-4,5-dihydro-1H-imidazole] | Form 1 | Stable | 97.9 | 1.0 | 90.3 | 8.7 | – | 99.0 | Physical stability ([1]; listed as L-tartaric acid (form 1)): remained stable
COc1cccc2c1CCOC2C1=NCCN1 [L-tartaric acid salt Form 2, 2-(5-methoxyisochroman-1-yl)-4,5-dihydro-1H-imidazole] | Form 1 | Unstable | 97.5 | 1.0 | 88.3 | 10.3 | – | 98.6 | Crystalline form conversion on storage ([1]; 40° C., 75% RH for 3 weeks): turned into form 1; Form after stability ([1]; listed as L-tartaric acid (form 2)): completely
COc1cccc2c1CCOC2C1=NCCN1 (centres unmarked) [Maleic acid salt Form 1, 2-(5-methoxyisochroman-1-yl)-4,5-dihydro-1H-imidazole] | Form 1 | Stable | 64.0 | 35.7 | 33.3 | 66.4 | – | 99.6 | Physical stability ([1]; listed as maleic acid): remained stable
COc1cccc2c1CCOC2C1=NCCN1 (centres unmarked) [Malonic acid salt Form 1, 2-(5-methoxyisochroman-1-yl)-4,5-dihydro-1H-imidazole] | Form 1 | Stable | 96.6 | 1.5 | 72.7 | 25.5 | – | 98.2 | Physical stability ([1]; listed as malonic acid): remained stable
COc1cccc2c1CCOC2C1=NCCN1 (centres unmarked) [Mucic acid salt Form 1, 2-(5-methoxyisochroman-1-yl)-4,5-dihydro-1H-imidazole] | Form 1 | Stable | 97.7 | 1.6 | 35.6 | 63.6 | – | 99.2 | Physical stability ([1]; listed as mucic acid): remained stable
COc1cccc2c1CCOC2C1=NCCN1 (centres unmarked) [Naphthalene-1,5-disulfonic acid salt Form 1] [2-(5-methoxyisochroman-1-yl)-4,5-dihydro-1H-imidazole] | Form 1 | Stable | – | – | – | – | good chemical stability | – | Physical stability ([1]; listed as naphthalene-1,5-disulfonic acid): remained stable; Purity (%) of 1 day stress samples [2, 3]: 96.1%; Difference between reference and 1 day stressed sample [2, 3]: 0.2; Purity (%) of 14 day stress samples [2, 3]: 95.7%; Difference between reference and 14 day stressed sample [2, 3]: 0.6; Purity (%) of reference [2, 3]: 96.3%
COc1cccc2c1CCOC2C1=NCCN1 (centres unmarked) [Oxalic acid salt Form 1, 2-(5-methoxyisochroman-1-yl)-4,5-dihydro-1H-imidazole] | Form 1 | Stable | 97.9 | −0.2 | 97.9 | −0.2 | good chemical stability | 97.7 | Physical stability ([1]; listed as oxalic acid): remained stable
COc1cccc2c1CCOC2C1=NCCN1 (centres unmarked) [Tasipimidine, 2-(5-methoxyisochroman-1-yl)-4,5-dihydro-1H-imidazole] | – | – | – | – | – | – | – | – | Activity on adrenergic alpha2 receptors, especially alpha2A receptor (alpha2A receptor): agonistic activities
